Data set [1] in a line: Cellular toxicity assay in human PBM cells. The data set is classed as cell-based. The conditions noted are these: human. Here is the method:
(§1) The toxicity of the compounds was assessed in Vero, human PBM, CEM (human lymphoblastoid), MT-2, and HepG2 cells, as described previously (see Schinazi R. F., Sommadossi J.-P., Saalmann V., Cannon D. L., Xie M.-Y., Hart G. C., Smith G. A. & Hahn E. F. Antimicrob. Agents Chemother. 1990, 34, 1061-67). Cycloheximide was included as positive cytotoxic control, and untreated cells exposed to solvent were included as negative controls. The cytotoxicity IC50 was obtained from the concentration-response curve using the median effective method described previously (see Chou T.-C. & Talalay P. Adv. Enzyme Regul. 1984, 22, 27-55; Belen'kii M. S. & Schinazi R. F. Antiviral Res. 1994, 25, 1-11).

Data set [2] in a line: Cellular toxicity assay in CEM cells. The data set is classed as cell-based, human. The note with it: human. Here is the method: as §1
Data set [3] is described as follows: Cellular toxicity assay in Vero cells. The data set is classed as cell-based. The conditions noted are these: African green monkey. The method, then:
as §1

Data set [4] in a line: Cellular toxicity assay in HepG2 cells. The data set is classed as cell-based. The conditions noted are these: human. Here is the method: as §1
In another data set the test system is wild type HBV. Kind of data set: Anti-HBV assay in AD-38 cell line (HBV in culture supernatant). The format is cell-based. The conditions noted are these: Hepatitis B virus, AD-38 cell line, Tet (-); for EC50: read-out: Anti-HBV activity EC50; for EC90: read-out: Anti-HBV activity EC90. The method, then: The anti-HBV activity of the compounds was determined by treating the AD-38 cell line carrying wild type HBV under the control of tetracycline (see Ladner S. K., Otto M. J., Barker C. S., Zaifert K., Wang G. H., Guo J. T., Seeger C. & King R. W. Antimicrob. Agents Chemother. 1997, 41, 1715-20). Removal of tetracycline from the medium [Tet (−)] results in the production of HBV. The levels of HBV in the culture supernatant fluids from cells treated with the compounds were compared with that of the untreated controls. Control cultures with tetracycline [Tet (+)] were also maintained to determine the basal levels of HBV expression. 3TC was included as positive control.
The median effective concentrations (EC50) ranges of several of the compounds described herein against HBV are shown in Table 3: […]

The mark [5] stands for this setting: human PBM cells, read-out: Cytotoxicity, CC50 (μM) PBM.
[6] abbreviates: CEM lymphoblastoid cells, CEM cells, read-out: Cytotoxicity, CC50 (μM) CEM.
[7] abbreviates: Vero cells, read-out: Cytotoxicity, CC50 (μM) VERO.
Where [8] appears, read: HepG2 cells, read-out: Cytotoxicity, CC50 (μM) HepG2.

Some results are limits rather than exact numbers.

In general, EC50 refers to the concentration giving half of the maximal effect. As usually defined, the EC90 is the concentration needed for an effect of 90%.

Turning to `Cc1c(C(=O)C(=O)NCCCN(CCCNC(=O)C(=O)c2c(C)c(C(=O)Nc3ccc(F)c(F)c3)n(C)c2C)CCCNC(=O)C(=O)c2c(C)c(C(=O)Nc3ccc(F)c(F)c3)n(C)c2C)c(C)n(C)c1C(=O)Nc1ccc(F)c(F)c1` [Compound 16a, 4,4′,4″-(2,2′,2″-((Nitrilotris(propane-3,1-diyl))tris(azanediyl))tris(2-oxoacetyl))tris(N-(3,4-difluorophenyl)-1,3,5-trimethyl-1H-pyrrole-2-carboxamide)], the CC50 in data set [1] (setting [5]) was over 100 µM; in data set [2] (setting [6]), over 100 µM; in data set [3] (setting [7]), 9 µM; in data set [4] (setting [8]) it was over 100 µM. Besides, the EC50 with wild type HBV lay within 0.1 to 1 µM. Further, the EC90 in the data set with wild type HBV was 1 to 10 µM.

On to `Fc1ccc(C2N=C(c3nccs3)NC(CN3CCOCC3)=C2C#CC2CC2)c(Br)c1` (stereo not drawn) [Compound 17, 4-((6-(2-Bromo-4-fluorophenyl)-5-(cyclopropylethynyl)-2-(thiazol-2-yl)-3,6-dihydropyrimidin-4-yl)methyl)morpholine], for which the CC50 in data set [1] (setting [5]) was 19 µM; in data set [2] (setting [6]), 17 µM; in data set [3] (setting [7]) it was 23 µM; in data set [4] (setting [8]), 81 µM. The EC50 in the data set on wild type HBV is 0.01 to 0.1 µM. Also, in the data set with wild type HBV, the EC90 lay within 0.1 to 1 µM.

With `CCOC(=O)C1=C(CNCc2cn(CCCCCCCCn3cc(CNCC4=C(C(=O)OCC)C(c5ccc(F)cc5Br)N=C(c5nccs5)N4)nn3)nn2)NC(c2nccs2)=NC1c1ccc(F)cc1Br` (stereo not drawn) [Compound 17c, Diethyl 6,6′-((((octane-1,8-diylbis(1H-1,2,3-triazole-1,4-diyl))bis(methylene))bis-(azanediyl))bis(methylene))bis(4-(2-bromo-4-fluorophenyl)-2-(thiazol-2-yl)-1,4-dihydropyrimidine-5-carboxylate)], the CC50 is 11 µM in data set [1] (setting [5]), 7.1 µM in data set [2] (setting [6]), over 100 µM in data set [3] (setting [7]) and 38.5 µM in data set [4] (setting [8]). In addition, in the data set with wild type HBV, the EC50 lay within 1 to 10 µM. In addition, the EC90 in the data set on wild type HBV lay in the range of 1 to 10 µM.

Regarding `CCOC(=O)C1=C(CNCc2cn(CCCCCCCCCCCCn3cc(CNC(=O)C(=O)c4c(C)c(C(=O)Nc5ccc(F)c(F)c5)n(C)c4C)nn3)nn2)NC(c2nccs2)=NC1c1ccc(F)cc1Br` (stereo not drawn) [Compound 23, Ethyl 4-(2-bromo-4-fluorophenyl)-6-((((1-(12-(4-((2-(5-((3,4-difluorophenyl)-carbamoyl)-1,2,4-trimethyl-1H-pyrrol-3-yl)-2-oxoacetamido)methyl)-1H-1,2,3-triazol-1-yl)dodecyl)-1H-1,2,3-triazol-4-yl)methyl)amino)methyl)-2-(thiazol-2-yl)-1,4-dihydropyrimidine-5-carboxylate], the CC50 is over 100 µM in data set [1] (setting [5]), 14 µM in data set [2] (setting [6]), over 100 µM in data set [3] (setting [7]) and 63 µM in data set [4] (setting [8]). Also, in the data set with wild type HBV, the half-maximal effective concentration (EC50) fell in the range of 0.01 to 0.1 µM. Further, in the data set on wild type HBV, the EC90 lay in the range of 0.1 to 1 µM.

With `O=C(Nc1ccc(F)c(Cl)c1)N1[C@@H]2CC[C@H]1c1c(-c3cscn3)n[nH]c1C2` [Compound 33, (4S,7R)—N-(3-Chloro-4-fluorophenyl)-3-(thiazol-4-yl)-1,4,5,6,7,8-hexahydro-4,7-epiminocyclo hepta[c]pyrazole-9-carboxamide], the CC50 in data set [1] is 32 µM; in data set [2] it was 32 µM; in data set [3], 61 µM; in data set [4] it was 19 µM. Further, the 50% effective concentration (EC50) with wild type HBV was 0.1 to 1 µM. The EC90 in the data set with wild type HBV lay in the range of 1 to 10 µM.

On to `O=S(=O)(NC1CC2=C(C#CC3CC3)C(c3ccc(F)cc3Cl)N=C(c3nccs3)N2C1)C1CC1` (stereo not drawn) [Compound 45, N-(3-(2-Chloro-4-fluorophenyl)-4-(cyclopropylethynyl)-1-(thiazol-2-yl)-3,5,6,7-tetrahydro-pyrrolo[1,2-c]pyrimidin-6-yl)cyclopropanesulfonamide], for which the CC50 was 75 µM in data set [1] (setting [5]), 24 µM in data set [2] (setting [6]), over 100 µM in data set [3] (setting [7]) and over 100 µM in data set [4] (setting [8]). For the same compound, the EC50 in the data set on wild type HBV was 0.01 to 0.1 µM. For the same compound, in the data set on wild type HBV, the EC90 was 0.1 to 1 µM.

The values above are taken from patent publication US20230056135A1, “MONOMER AND MULTIMERIC ANTI-HBV AGENTS” (priority 2018, published 2023).
